In US10351883B2, “Compounds for increasing lipid synthesis and storage” (NUtech Ventures, priority 2015, dated 2019):

Legend:
Type in all cases: cell-based
[1] = tested on: Chlamydomonas reinhardtii cells; assay: Cellular chlorophyll and carotenoid levels; details: 30 μM, FIG. 7
[2] = tested on: Chlamydomonas reinhardtii cells; assay: Levels of proteins required for photosynthesis; details: Rubisco large and small sub unit, PSa D, PSb A, phosphoribulokinase, histone; FIG. 8
[3] = tested on: Chlamydomonas reinhardtii CC125; assay: Lipid accumulation in algal cells; details: 0.63 μM to 50 μM, FIG. 11A-11C
Method: (§1) Compounds 1, 62, and 136 were assayed in algal species Chlamydomonas reinhardtii CC125, Chlorella sorokiniana UTEX 1230, Chlorella vulgaris UTEX 395, and Tetrachlorella alterns UTEX 2453 at concentrations ranging from 0.63 μM to 50 μM.

[4] = tested on: Chlorella sorokiniana UTEX 1230; assay: Lipid accumulation in algal cells; details: 0.63 μM to 50 μM, FIG. 11A-11C
Method: as §1

[5] = tested on: Chlorella vulgaris UTEX 395; assay: Lipid accumulation in algal cells; details: 0.63 μM to 50 μM, FIG. 11A-11C
Method: as §1

[6] = tested on: Tetrachlorella alterns UTEX 2453; assay: Lipid accumulation in algal cells; details: 0.63 μM to 50 μM, FIG. 11A-11C
Method: as §1

[7] = tested on: Chlamydomonas reinhardtii cells; assay: Fatty acid assay; details: 30 μM, FIG. 5
[8] = tested on: Chlamydomonas reinhardtii cells; assay: Lipid accumulation using lipophilic dye Nile Red; details: for lipid accumulation: 0.5 μM to 15.0 μM, FIG. 3; for lipid accumulation over 72 hours: 30 μM test compound, FIG. 4
Method: […] At the indicated times 200 μL cells were removed from each well and optical density and nile red fluorescence were measured.
Lipid accumulation over a period of 72 hours was also measured (30 μM test compound) using lipophilic dye Nile Red, as shown in FIG. 4. […] FIGS. 12A-12C show representative images of C. reinhardtii cultures that were treated with 10 μM of representative test compounds of Formula Ia, Formula IIa, and Formula IIIa. The corresponding lipid accumulation was visualized using confocal microscopy after 72 hours in culture.

[9] = tested on: Chlamydomonas reinhardtii cells; assay: Total protein levels in cells; details: FIG. 10
[10] = tested on: Chlamydomonas reinhardtii cells; assay: Cellular carbohydrate levels; details: 30 μM, FIG. 9
[11] = tested on: Chlamydomonas reinhardtii cells; assay: Microscopy of treated cells (organelles, lipid droplets); details: FIG. 1
Method: The screening library included 43,736 compounds (ChemBridge, Corp). […] A sub-set of compounds were retested using an 8-point dose response assay (0.25-30 μM). Compounds were further assessed visually using a Nikon Ti-inverted microscope (60×) to reconfirm lipid droplet accumulation was induced.

[12] = tested on: Chlamydomonas reinhardtii cells; assay: Triglyceride assay; details: 5 μM, FIG. 6

COc1ccccc1N1CCN(Cc2ccc(O)cc2)CC1 [Compound 62, 4-((4-(2-methoxyphenyl)piperazin-1-yl)methyl)phenol]
carotenoid levels [1]: did not significantly alter
levels of chlorophyll A (Chl A) [1]: did not significantly alter
levels of chlorophyll B (Chl B) [1]: did not significantly alter
levels of proteins required for photosynthesis [2]: minor effects
lipid accumulation [3]: stimulated lipid accumulation
lipid accumulation [4]: stimulated lipid accumulation
lipid accumulation [5]: stimulated lipid accumulation
lipid accumulation [6]: stimulated lipid accumulation
fatty acid levels [7]: increased fatty acid levels
lipid accumulation [8]: increased lipid accumulation
lipid accumulation over 72 hours [8]: increased lipid accumulation
total protein levels [9]: None of the test compounds significantly affected
carbohydrate levels [10]: increased carbohydrate levels
disruption of major organelles including nucleus, endoplasmic reticulum, and chloroplast [11]: does not disrupt major organelles
triacylglyercol levels [12]: increased triacylglyercol levels

CN(CCC#N)C12CC3CC(CC(C3)C1)C2 [Compound 136, 3-(adamantan-1-yl(methyl)amino)propanenitrile]
carotenoid levels [1]: did not significantly alter
levels of chlorophyll A (Chl A) [1]: did not significantly alter
levels of chlorophyll B (Chl B) [1]: did not significantly alter
levels of proteins required for photosynthesis [2]: did not significantly affect
lipid accumulation [3]: stimulated lipid accumulation
lipid accumulation [4]: stimulated lipid accumulation
lipid accumulation [5]: stimulated lipid accumulation
lipid accumulation [6]: stimulated lipid accumulation
fatty acid levels [7]: increased fatty acid levels
lipid accumulation [8]: increased lipid accumulation
lipid accumulation over 72 hours [8]: increased lipid accumulation
total protein levels [9]: None of the test compounds significantly affected
carbohydrate levels [10]: increased carbohydrate levels
disruption of major organelles including nucleus, endoplasmic reticulum, and chloroplast [11]: does not disrupt major organelles
triacylglyercol levels [12]: increased triacylglyercol levels
